Results: PubChem BioAssay (NCI)
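Values below derive from 48-hour exposures of cells grown in 96-well plates, with endpoints linearly interpolated between the two concentrations bracketing the appropriate inhibition level. The concentration for 50% growth inhibition is given as GI50. TGI: total growth inhibition.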

Assays:
Assay in all cases: NCI-60 cell line screen, 48 h
[1] = tested on: MDA-N
[2] = tested on: SF-295 CNS
[3] = tested on: M14 melanoma
[4] = tested on: SF-268 CNS
[5] = tested on: HCT-15 colon
[6] = tested on: SN12C renal
[7] = tested on: LOX IMVI melanoma
[8] = tested on: OVCAR-3 ovarian
[9] = tested on: RPMI-8226 leukemia

Structure (SMILES) | TGI [1] [µM] | TGI [2] [µM] | TGI [3] [µM] | TGI [4] [µM] | TGI [5] [µM] | TGI [6] [µM] | TGI [7] [µM] | TGI [8] [µM] | TGI [9] [µM] | GI50 [2] [µM] | GI50 [3] [µM] | GI50 [4] [µM] | GI50 [5] [µM] | GI50 [6] [µM] | GI50 [7] [µM] | GI50 [8] [µM] | GI50 [9] [µM]
O=S(=O)(O)c1ccc2c(N=Nc3c(O)ccc4ccccc34)cccc2c1 | > 100 | > 100 | > 100 | > 100 | > 100 | > 100 | > 100 | > 100 | > 100 |  |  |  |  |  |  |  | 
Cc1cc2c3c(c1)CCCN3CCC2 | > 10 | > 10 | > 10 | > 10 | > 10 | > 10 | > 10 | > 10 | > 10 |  |  |  |  |  |  |  | 
N=C(N)c1ccc(N=Nc2c(O)ccc3cc(O)ccc23)cc1 |  | > 100 | > 100 | > 100 | > 100 |  |  | > 100 | > 100 |  |  |  |  |  |  |  | 
CCN(CCCl)c1cc(CN(C)C)cc(NC(=O)c2cc(C(=O)Nc3cc(CN(C)C)cc(N(CC)CCCl)c3)n(C)n2)c1 | 2.55 | 2.24 | 2.01 | 1.56 | 10.5 | 2.01 | 0.26 |  | > 100 |  |  |  |  |  |  |  | 
CC(=O)OC1CC[C@@]2(C)C(=CC[C@@H]3[C@@H]2CC[C@]2(C)C(OC(C)=O)[C@H](n4ccnc4)C[C@@H]32)C1 (stereo partly drawn) | 46.6 | > 100 | 31.2 | > 100 | 30.6 | > 100 | 37.7 |  | 55.2 |  |  |  |  |  |  |  | 
CC(N)=O.[Cl][Pt][Cl].[NH-]c1ccn(C2OC(CO)C(O)C2O)c(=O)n1 (stereo not drawn) |  | > 100 | > 100 | > 100 | > 100 | > 100 | > 100 | > 100 | > 100 |  |  |  |  |  |  |  | 
Clc1ccc(Cn2cc(/C=N/n3cnnc3)c3ccccc32)cc1 |  | > 100 | > 100 | > 100 | > 100 | > 100 | > 100 | > 100 | > 100 |  |  |  |  |  |  |  | 
COc1cccc(-c2[nH]c3cc4c(cc3c(=O)c2C(=O)O)OCO4)c1 | 51.5 | 79.4 | > 100 |  | > 100 | > 100 | > 100 | > 100 | > 100 |  |  |  |  |  |  |  | 
NC(N)=N/N=C\c1c(-c2ccccc2)nc2sccn12 | 27.1 | 27.9 |  | 29.9 | 29.8 | 28.8 | 30.1 |  | 49 |  |  |  |  |  |  |  | 
COc1ccc(/C=N/n2c(Cc3ccccc3)n[nH]c2=O)cc1 | > 100 | > 100 | > 100 | > 100 | > 100 | > 100 |  | > 100 | > 100 |  |  |  |  |  |  |  | 
C/C(=N\Nc1nc2ccccc2n1C)c1ccc2ccccc2n1 | 37.7 | 10.5 | 4.91 | 19.2 | > 75.7 | 16.2 | 16.6 | 0.213 |  |  |  |  |  |  |  |  | 
Cc1ccc2oc3c(ccc(=O)n3C)c(=O)c2c1 | > 100 | > 100 | > 100 | > 100 | > 100 | > 100 | > 100 | > 100 |  |  |  |  |  |  |  |  | 
CC(C)(CC1(C)NC(=O)NC1=O)OCc1ccccc1 (stereo not drawn) |  | > 100 | > 100 | > 100 | > 100 | > 100 | > 100 | > 100 | > 100 |  |  |  |  |  |  |  | 
CCOc1cc(/C=C/C(=O)CC(=O)/C=C/c2ccc(OC(=O)CNCCN(CC)CC)c(OCC)c2)ccc1OC(=O)CNCCN(CC)CC |  | 23.4 | 4.23 | 9.64 | 4.66 | 6.25 | 2.44 | 6.07 | 2.1 | 6.26 | 1.74 | 1.98 | 2.06 | 2 | 1.05 | 2.24 | 0.45
CC(=O)Nc1sccc1S(=O)(=O)c1ccc(Cl)cc1 |  | > 100 | > 100 | > 100 | > 100 | > 100 |  | > 100 | > 100 |  |  |  |  |  |  |  | 
COC(=O)[C@]1(C)[C@H]2C[C@H]3O[C@H]4[C@H](O)[C@@H](O)OC(CC(O)C(C5=CC(=O)OC5)C(C5=CC(=O)OC5)C(O)CC56CCCCC7[C@@H](C)[C@H](C[C@H]8[C@](C)(C(=O)OC)[C@H](O)CC[C@]78C)O[C@H]([C@@H](O)[C@H](O)O5)[C@H]6O)(CCCCC([C@@H]3C)[C@]2(C)CC[C@@H]1O)[C@H]4O (stereo partly drawn) | 0.786 |  | 1.16 | 0.212 | 1.11 | 0.159 | 1.17 | 1.05 | 0.539 |  |  |  |  |  |  |  | 
O=C1CC(=O)NC(=NN2C(=O)/C(=C/c3ccc(Cl)cc3)N=C2c2ccccc2)N1 | 30.2 | 33 | 29.3 | 34.2 | 30.8 | 32.3 |  | 32.6 | 58.2 |  |  |  |  |  |  |  | 
CCOC(=O)[C@@H]1C[C@@H]1c1ccc(O)c(O)c1 | 35.1 | > 100 | 25.2 | > 100 | > 100 | > 100 |  | 67.8 | 77 |  |  |  |  |  |  |  | 
CC1=CC(=O)c2c(O)c3c(c(O)c2C1=O)C1C(O)C(C3=O)C23C(=O)c4c(O)c(C)cc(O)c4C(O)=C2C(=O)CC(O)C13 (stereo not drawn) | 2.89 | 2.3 | 10.5 | 7.54 | 6.91 | 5.55 | 4.7 | 7.75 |  |  |  |  |  |  |  |  | 
CC1=C2CC(C)(C)CC(=O)C2(C)CCC1=O (stereo not drawn) | > 100 | > 100 | > 100 | > 100 | > 100 | > 100 | > 100 |  | 13.8 |  |  |  |  |  |  |  | 
CO[C@]12C[C@@H](CNC(=O)c3cc(Br)c[nH]3)O[C@H]1NC(=O)N2 |  | > 100 | > 100 | > 100 | > 100 | > 100 |  | > 100 | > 100 |  |  |  |  |  |  |  | 
C=CCCCCCCCCC(=O)ON(Cc1ccc(O)c(OC)c1)C(=O)C(F)(F)F |  | > 100 | > 100 | > 100 | > 100 | > 100 | > 100 |  | > 100 |  |  |  |  |  |  |  | 
O=C1c2ccccc2-n2c1nc1ccc(Cl)cc1c2=O | 48.3 | > 100 | > 100 |  | > 100 | > 100 | > 100 | > 100 | > 100 |  |  |  |  |  |  |  | 
